Assay results as given in patent US20170071991A1, “Oncolytic Virus and Aurora Kinase Inhibitor for the Treatment of Cancer” (priority 2014, published 2017).
Entries after “also recorded” stand apart in the source; their conditions may differ.

How the values were obtained:
[1] = human plasma; cited from earlier work
[2] = pro-drug; cited from earlier work
S462TY flank xenografts = assay: S462TY nude mouse flank xenograft, single HSV1716 dose plus MLN8237 20 mg/kg twice daily; format: in vivo, nude mice
Experimental: Single intratumoral (ITu) injections of 1.0×10^7 pfu HSV1716 or PBS or single intravenous (IV) injections of 9.0×10^7 pfu HSV1716 or PBS were administered on day 7 and tumor growth and survival were monitored.

[3] = test system: senescence-associated beta-galactosidase in S462TY xenografts; assay: Senescence detection with X-gal (SA-β-gal) in S462TY xenografts
[4] = test system: multiple tumor cell lines; conditions: values as low as; read-out: GI50, growth of multiple tumor cell lines; cited from earlier work
[5] = test system: HSV1716 uptake by S462TY cells; assay: Quantitative PCR for HSV1716 genomes in S462TY cells in vitro; format: cell-based; conditions: 30 min post infection, acid wash
Experimental: S462TY cells were infected with HSV1716 and an acid wash after 30 mins was used to remove residual free virus which had not penetrated intracellularly.

[6] = cited from earlier work
S462TY xenografts = assay: S462TY nude mouse xenograft, multiple cycles of lower dose MLN8237 plus HSV1716; format: in vivo, nude mice; conditions: multiple weekly ITu HSV1716 1×10^7 pfu and/or MLN8237 10 mg/kg once daily 5-day cycles
Source text: The schema used for each of the 4 groups is shown in FIG. 8 and tumor growth and survival were monitored throughout the experiment.

[7] = test system: HSV1716 titre in S462TY xenografts; assay: HSV1716 titration of S462TY xenograft tumours after ITu injection; format: in vivo, mice
Source text: MLN8237-treated or control, untreated mice with S462TY xenografts received ITu HSV1716 and tumours, removed at 2 and 48 hrs after virus administration, were titrated (FIG. 18).

[8] = test system: receptors and ion channels; conditions: cited from earlier work
[9] = test system: SK-N-AS flank xenografts (neuroblastoma); assay: SK-N-AS nude mouse flank xenograft model; format: in vivo, nude mice
Source text: SK-N-AS cells were derived from a bone marrow metastasis […] of a child with poorly differentiated embryonal neuroblastoma and the cell line readily formed flank xenografts in nude mice. […] The schema used for each of the 4 groups is shown in FIG. 13 and tumor growth and survival were monitored throughout the experiment.

[10] = test system: human colon cancer (HCT116) nude rat xenograft; conditions: HCT116 nude rat xenograft model; cited from earlier work
[11] = test system: human acute myelogenous leukemia (HL60) nude mice xenografts; conditions: cited from earlier work
[12] = S462TY flank xenografts, best response for at least 21 days, last response day 53, route as in label
[13] = S462TY flank xenografts, day 53, route as in label

CCN(CCCOc1ccc2c(Nc3cc(CC(=O)Nc4cccc(F)c4)n[nH]3)ncnc2c1)CCOP(=O)(O)O [AZD1152]
cleavage of pro-drug to active drug substance AZD1152 hydroxy-QPA [1]: cleaved completely
solubility [2]: highly soluble

COc1cc(Nc2ncc3c(n2)-c2ccc(Cl)cc2C(c2c(F)cccc2OC)=NC3)ccc1C(=O)O [MLN8237]
tumor growth of S462TY xenografts (FIG. 5a) (S462TY flank xenografts; HSV1716 single ITu 1.0×10^7 pfu day 7 and/or MLN8237 20 mg/kg oral twice daily, 42 days): initially effective at preventing growth of the xenografts
survival compared to vehicle/PBS-treated controls (FIG. 6) (S462TY flank xenografts; HSV1716 single ITu 1×10^7 pfu day 7 and/or MLN8237 20 mg/kg twice daily): improved survival
PR-->PD, evaluable mice (S462TY flank xenografts; [12]): 0
SD-->PD, evaluable mice (S462TY flank xenografts; [12]): 6
PD (Progressive Disease), evaluable mice (S462TY flank xenografts; S462TY flank xenografts, day 53 (11 days after last treatment), MLN8237 20 mg/kg oral twice daily 5 d/week 42 days, HSV1716 single ITu 1.0×10^7 or IV 9.0×10^7 pfu day 7, route as in label): 4
CR (Complete Response), evaluable mice (S462TY flank xenografts; [13]): 0
PR (Partial Response), evaluable mice (S462TY flank xenografts; [13]): 0
day by which most of the mice had been sacrificed (S462TY flank xenografts; single agents: IV HSV1716, MLN8237 twice daily doses): ≤ 60 days
sections staining after incubation with X-gal (MLN8237-induced senescence) [3]: 1/18
GI50 [4]: ≥ 16 nM
uptake/infection rate of HSV1716 (intracellular genomes, Q-PCR normalised to GAPDH) [5]: significantly increases intracellular HSV1716 genomes; also recorded: significantly higher uptake/infection rate
oral availability and absorption [6]: orally available and rapidly absorbed
tumor growth of S462TY xenografts (FIG. 9, 10) (S462TY xenografts): reduced the growth
free input virus detected in MLN8237-treated tumours ([7]; 2 hrs after ITu HSV1716): less of the free input virus detected
virus titre in MLN8237-treated compared to untreated control tumors ([7]; 48 hrs after ITu HSV1716): no apparent increase in virus titre
cross-reactivity in broad screen of receptors and ion channels [8]: no significant cross-reactivity
tumor growth, comparison between the four groups on day 21 (FIG. 16) ([9]; day 21): highly significant reduction in tumor growth
mice still alive on day 25 ([9]; day 25, single agents): approximately 50%
tumor growth of SK-N-AS xenografts (FIG. 14) ([9]; five weekly ITu HSV1716 1×10^7 pfu and/or MLN8237 10 mg/kg once daily 5-day cycles): reduced the growth

Cc1cc(Nc2cc(N3CCN(C)CC3)nc(Sc3ccc(NC(=O)C4CC4)cc3)n2)n[nH]1 [MK0457]
tumor regression, rats treated [10]: four of the seven rats
reduction in tumor volume when compared with controls [11]: 98%
